# Data: publication PMC6864482, “Novel C7-Substituted Coumarins as Selective Monoamine Oxidase Inhibitors: Discovery, Synthesis and Theoretical Simulation” (Molecules, 2019)
# Where a name gives a salt, the structure may show the parent alone. Read-outs that look alike come from different tables or passages of the source.
# Experiments:
# hMAO-B [1] = biological target: T1, hMAO-B (Homo sapiens, UniProt P27338); assay: MAO-Glo inhibition assay, hMAO-B; format: biochemical
# T1 sequence (P27338 1-520): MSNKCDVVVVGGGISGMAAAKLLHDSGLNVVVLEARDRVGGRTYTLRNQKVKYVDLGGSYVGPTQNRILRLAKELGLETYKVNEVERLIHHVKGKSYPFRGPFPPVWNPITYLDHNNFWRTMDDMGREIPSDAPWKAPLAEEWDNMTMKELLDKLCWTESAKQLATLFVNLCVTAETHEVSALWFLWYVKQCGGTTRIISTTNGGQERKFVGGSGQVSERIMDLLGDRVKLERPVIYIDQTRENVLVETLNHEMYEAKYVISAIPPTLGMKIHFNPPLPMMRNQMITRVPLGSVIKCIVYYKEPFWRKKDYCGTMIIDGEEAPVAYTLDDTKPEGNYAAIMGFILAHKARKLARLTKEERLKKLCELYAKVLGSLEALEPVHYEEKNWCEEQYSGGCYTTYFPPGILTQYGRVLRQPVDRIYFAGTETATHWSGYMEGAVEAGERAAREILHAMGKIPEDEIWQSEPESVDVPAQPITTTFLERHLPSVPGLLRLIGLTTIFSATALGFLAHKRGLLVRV
# Experimental: (§1) The inhibition and IC50 values of the identified C7-substituted coumarin analogues were assayed by Shanghai ChemPartner Co. Ltd., using MAO-GloTM assay kit (Promega Corporation, V1402). Two human MAO enzymes (Cat#31502, Cat#31503) were purchased from Active Motif. Clorgyline and R(-)-deprenyl were purchased as reference drugs from Sigma (Cat. No. M3778) and Abcam (Cat. No. ab120604), respectively. The MAO inhibition assays were carried out in modified HEPES buffer in light of the manufacturer’s protocol. Firstly, the tested compounds in DMSO were transferred to a 384-well plate by Echo. The enzyme solutions were then added into the plate and the plate was incubated for 15 min at room temperature (r.t.). Secondly, the luciferin derivative substrate was added to initiate the reaction. After 60 min incubation at r.t., the Luciferin detection reagent was added to each well to terminate the reaction and generate the luminescent signal. Before reading the signal, the plate was incubated for 20 min at r.t. Finally, plate reader was used to measure and record the luminescent signal and corresponding data were processed using GraphPad Prism 5.
# hMAO-A [2] = biological target: T2, hMAO-A (Homo sapiens, UniProt P21397); assay: MAO-Glo inhibition assay, hMAO-A; format: biochemical
# T2 sequence (P21397 1-527): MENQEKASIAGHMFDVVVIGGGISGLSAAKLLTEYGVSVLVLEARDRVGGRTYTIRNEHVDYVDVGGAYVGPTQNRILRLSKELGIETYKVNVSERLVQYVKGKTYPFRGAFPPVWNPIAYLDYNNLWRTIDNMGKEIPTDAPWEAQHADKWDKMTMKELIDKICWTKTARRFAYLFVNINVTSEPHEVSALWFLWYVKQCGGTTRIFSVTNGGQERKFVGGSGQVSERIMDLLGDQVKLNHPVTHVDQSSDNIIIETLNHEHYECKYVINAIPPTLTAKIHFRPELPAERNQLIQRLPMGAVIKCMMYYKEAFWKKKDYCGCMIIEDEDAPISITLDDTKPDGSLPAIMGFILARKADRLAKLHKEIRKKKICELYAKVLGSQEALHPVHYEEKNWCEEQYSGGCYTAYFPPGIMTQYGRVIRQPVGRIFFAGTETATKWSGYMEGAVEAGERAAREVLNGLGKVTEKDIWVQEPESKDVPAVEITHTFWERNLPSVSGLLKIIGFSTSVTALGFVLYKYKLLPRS
# Experimental: as §1
# hMAO-A [3] = biological target: T2, hMAO-A; conditions: cited from earlier work
# hMAO-B [4] = biological target: T1, hMAO-B; conditions: cited from earlier work; for IC50: read-out: MAO-B IC50
# [5] = purchased (Specs) or synthesized compounds
# [6] = purchased (Specs) or synthesized compounds, read-out: MAO-A IC50
# [7] = Table S3, Esuprone derivatives, read-out: MAO-A* IC50
# [8] = previously identified BRS-3D hits
# [9] = pIC50 = −log(IC50), previously identified BRS-3D hits
# [10] = previously identified BRS-3D hits, read-out: MAO-A IC50
# [11] = experimental activity of reference ligand C18 of 2V61, source not stated
structure (smiles),measurement,setting,value
"CCCc1cc(=O)oc2c(C)c(Oc3nnc(-c4ccccc4)s3)ccc12 [7k, 8-Methyl-7-((5-phenyl-1,3,4-thiadiazol-2-yl)oxy)-4-propyl-2H-chromen-2-one]",IC50,hMAO-B [1]; [5],120 nM
same,IC50,hMAO-A [2]; [6],21 nM
same,melting point,,110 to 112 °C
"CCS(=O)(=O)Oc1ccc2c(C3CC3)cc(=O)oc2c1 [7d, 4-Cyclopropyl-2-oxo-2H-chromen-7-yl ethanesulfonate]",IC50,"hMAO-B [1]; Table S3, Esuprone derivatives",> 100000 nM
same,IC50,hMAO-A [2]; [7],1400 nM
same,melting point,,92 °C
O=C(COc1ccc2c3c(c(=O)oc2c1)CCC3)c1ccc(Cl)cc1 [FR4],IC50,hMAO-B [1]; [5],18 nM
same,inhibition at 10 µM,hMAO-A [2],23%
same,IC50,hMAO-A [2]; [6],> 10000 nM
"CCS(=O)(=O)Oc1ccc2c(C)c(C)c(=O)oc2c1 [Esuprone, reference compound]",IC50,"hMAO-A [3]; comparison value under Table S3, MAO-A by context, source not stated, read-out: IC50 value of Esuprone",10.7 nM
"O=c1cc(C2CC2)c2ccc(OS(=O)(=O)c3ccc([N+](=O)[O-])cc3)cc2o1 [7f, 4-Cyclopropyl-2-oxo-2H-chromen-7-yl 4-nitrobenzenesulfonate]",IC50,"hMAO-B [1]; Table S3, Esuprone derivatives",9000 nM
same,IC50,hMAO-A [2]; [7],95 nM
"CCCc1cc(=O)oc2c(C)c(OS(=O)(=O)c3ccc(C)cc3)ccc12 (as salt: benzenesulfonate) [7i, 8-Methyl-2-oxo-4-propyl-2H-chromen-7-yl 4-methylbenzenesulfonate]",melting point,,144 to 146 °C
"Cc1c(C)c2cc(Cl)c(Oc3nnc(-c4ccccc4)s3)cc2oc1=O [7c, 6-Chloro-3,4-dimethyl-7-((5-phenyl-1,3,4-thiadiazol-2-yl)oxy)-2H-chromen-2-one]",IC50,hMAO-B [1]; [5],440 nM
same,IC50,hMAO-A [2]; [6],810 nM
same,melting point,,171 to 173 °C
"CCCc1cc(=O)oc2c(C)c(OS(=O)(=O)c3ccc([N+](=O)[O-])cc3)ccc12 (as salt: benzenesulfonate) [7j, 8-Methyl-2-oxo-4-propyl-2H-chromen-7-yl 4-nitrobenzenesulfonate]",melting point,,171 to 174 °C
Cc1cc(=O)oc2cc(OCCOc3ccccc3)ccc12 [FR5],IC50,hMAO-B [1]; [5],15 nM
same,inhibition at 10 µM,hMAO-A [2],28%
same,IC50,hMAO-A [2]; [6],> 10000 nM
"Cc1c(OS(=O)(=O)c2ccc([N+](=O)[O-])cc2)ccc2c3c(c(=O)oc12)CCC3 (as salt: benzenesulfonate) [5c, 6-Methyl-4-oxo-1,2,3,4-tetrahydrocyclopenta[c]chromen-7-yl 4-nitrobenzenesulfonate]",melting point,,192 to 194 °C
"O=c1cc(C2CC2)c2ccc(OS(=O)(=O)c3ccc([N+](=O)[O-])cc3)cc2o1 (as salt: benzenesulfonate) [7f, 4-Cyclopropyl-2-oxo-2H-chromen-7-yl 4-nitrobenzenesulfonate]",melting point,,192 to 194 °C
CCc1cc(=O)oc2cc(OCC(=O)N(C)C)ccc12 [M30],MAO-A Avg. Inh% at 10 uM,hMAO-A [3]; [8],56%
same,MAO-B Avg. Inh% at 10 uM,hMAO-B [4]; [8],22%
C=CCOC(=O)COc1ccc2c3c(c(=O)oc2c1C)CCCC3 [FR3],inhibition at 10 µM,hMAO-B [1],66%
same,IC50,hMAO-B [1]; [5],> 5000 nM
same,IC50,hMAO-A [2]; [6],740 nM
"CCCc1cc(=O)oc2c(C)c(OS(=O)(=O)CC)ccc12 [7h, 8-Methyl-2-oxo-4-propyl-2H-chromen-7-yl ethanesulfonate]",IC50,"hMAO-B [1]; Table S3, Esuprone derivatives",9900 nM
same,IC50,hMAO-A [2]; [7],910 nM
same,melting point,,78 to 80 °C
CCCc1cc(=O)oc2cc(OCC(=O)N(C)C)ccc12 [M31],MAO-A Avg. Inh% at 10 uM,hMAO-A [3]; [8],92%
same,MAO-A pIC50,hMAO-A [3]; [9],6.3
same,IC50,hMAO-A [3]; [10],500 nM
same,MAO-B Avg. Inh% at 10 uM,hMAO-B [4]; [8],16%
same,MAO-B pIC50,hMAO-B [4]; [9],4.2
same,IC50,hMAO-B [4]; [8],64600 nM
"CCCc1cc(=O)oc2c(C)c(OS(=O)(=O)c3ccc(C)cc3)ccc12 [7i, 8-Methyl-2-oxo-4-propyl-2H-chromen-7-yl 4-methylbenzenesulfonate]",IC50,"hMAO-B [1]; Table S3, Esuprone derivatives",4100 nM
same,IC50,hMAO-A [2]; [7],170 nM
"Cc1c(OS(=O)(=O)c2ccc([N+](=O)[O-])cc2)ccc2c3c(c(=O)oc12)CCC3 [5c, 6-Methyl-4-oxo-1,2,3,4-tetrahydrocyclopenta[c]chromen-7-yl 4-nitrobenzenesulfonate]",IC50,"hMAO-B [1]; Table S3, Esuprone derivatives",590 nM
same,IC50,hMAO-A [2]; [7],< 5 nM
same,IC50,hMAO-A [2]; read-out: hMAO-A IC50,~5 nM
Cc1c(OCC(=O)N(C)C)ccc2c3c(c(=O)oc12)CCC3 [FR2],inhibition at 10 µM,hMAO-B [1],12%
same,IC50,hMAO-B [1]; [5],> 10000 nM
same,IC50,hMAO-A [2]; [6],2820 nM
"Cc1ccc(S(=O)(=O)Oc2ccc3c(C4CC4)cc(=O)oc3c2)cc1 [7e, 4-Cyclopropyl-2-oxo-2H-chromen-7-yl 4-methylbenzenesulfonate]",IC50,"hMAO-B [1]; Table S3, Esuprone derivatives",9500 nM
same,IC50,hMAO-A [2]; [7],1100 nM
same,melting point,,132 to 134 °C
Cc1c(OC(=O)C2CC2)ccc2c3c(c(=O)oc12)CCC3 [FR1],inhibition at 10 µM,hMAO-B [1],75%
same,IC50,hMAO-B [1]; [5],> 1000 nM
same,IC50,hMAO-A [2]; [6],1.5 nM
Cc1cc(=O)oc2c(C)c(Oc3nnc(-c4ccccc4)s3)ccc12 [SP1],inhibition at 10 µM,hMAO-B [1],64%
same,IC50,hMAO-B [1]; [5],> 5000 nM
same,IC50,hMAO-A [2]; [6],19 nM
Cc1c(C)c2cc(Cl)c(OCC(=O)N(C)C)cc2oc1=O [M32],MAO-A Avg. Inh% at 10 uM,hMAO-A [3]; [8],12%
same,MAO-A pIC50,hMAO-A [3]; [9],4.1
same,IC50,hMAO-A [3]; [10],81300 nM
same,MAO-B Avg. Inh% at 10 uM,hMAO-B [4]; [8],90%
same,MAO-B pIC50,hMAO-B [4]; [9],6.2
same,IC50,hMAO-B [4]; [8],600 nM
Cc1cc(=O)oc2c(C)c(OCC(=O)N(C)C)ccc12 [M29],MAO-A Avg. Inh% at 10 uM,hMAO-A [3]; [8],75%
same,MAO-A pIC50,hMAO-A [3]; [9],5.6
same,IC50,hMAO-A [3]; [10],2290 nM
same,MAO-B Avg. Inh% at 10 uM,hMAO-B [4]; [8],12%
same,MAO-B pIC50,hMAO-B [4]; [9],4
"CCCc1cc(=O)oc2c(C)c(OS(=O)(=O)c3ccc([N+](=O)[O-])cc3)ccc12 [7j, 8-Methyl-2-oxo-4-propyl-2H-chromen-7-yl 4-nitrobenzenesulfonate]",IC50,"hMAO-B [1]; Table S3, Esuprone derivatives",1700 nM
same,IC50,hMAO-A [2]; [7],29 nM
"CCCc1cc(=O)oc2cc(Oc3nnc(-c4ccccc4)s3)ccc12 [7b, 7-((5-Phenyl-1,3,4-thiadiazol-2-yl)oxy)-4-propyl-2H-chromen-2-one]",IC50,hMAO-A [2]; [6],24 nM
same,melting point,,150 °C
Cc1cc(=O)oc2cc(OCC(=O)N(C)C)c(Cl)cc12 [M34],MAO-A Avg. Inh% at 10 uM,hMAO-A [3]; [8],19%
same,MAO-B Avg. Inh% at 10 uM,hMAO-B [4]; [8],40%
"O=c1cc(C2CC2)c2ccc(Oc3nnc(-c4ccccc4)s3)cc2o1 [7g, 4-Cyclopropyl-7-((5-phenyl-1,3,4-thiadiazol-2-yl)oxy)-2H-chromen-2-one]",IC50,hMAO-B [1]; [5],6200 nM
same,IC50,hMAO-A [2]; [6],2000 nM
same,melting point,,158 to 160 °C
"CNCc1cc(=O)oc2cc(OCc3cccc(Cl)c3)ccc12 [C18, reference compound]",MAO-A pIC50,hMAO-A [3]; [11],4.8
same,MAO-B pIC50,hMAO-B [4]; [11],7
"Cc1ccc(S(=O)(=O)Oc2ccc3c4c(c(=O)oc3c2C)CCC4)cc1 [5b, 6-Methyl-4-oxo-1,2,3,4-tetrahydrocyclopenta[c]chromen-7-yl 4-methylbenzenesulfonate]",IC50,"hMAO-B [1]; Table S3, Esuprone derivatives",4900 nM
same,IC50,hMAO-A [2]; [7],12 nM
same,melting point,,152 °C
Cc1c(Oc2nnc(-c3ccccc3)s2)ccc2c3c(c(=O)oc12)CCC3 [5d],IC50,hMAO-B [1]; [5],2300 nM
same,IC50,hMAO-A [2]; [6],96 nM
same,melting point,,140 °C
Cc1cc(=O)oc2cc(OCC(=O)N(C)C)ccc12 [M33],MAO-A Avg. Inh% at 10 uM,hMAO-A [3]; [8],41%
same,MAO-B Avg. Inh% at 10 uM,hMAO-B [4]; [8],8%
"CCS(=O)(=O)Oc1ccc2c3c(c(=O)oc2c1C)CCC3 [5a, 6-Methyl-4-oxo-1,2,3,4-tetrahydrocyclopenta[c]chromen-7-yl ethanesulfonate]",IC50,"hMAO-B [1]; Table S3, Esuprone derivatives",2300 nM
same,IC50,hMAO-A [2]; [7],11 nM
same,melting point,,150 to 151 °C
